Assay results: US20080194585A1, “Fungicidal Pyrazine Derivatives” (priority 2005, published 2008)
Marks after values point to notes of the source that are not given here.

Key:
Pythium aphanidermatum = assay: Test A: bluegrass pythium blight, preventive spray on bluegrass seedlings
Rhizoctonia oryzae = assay: Test G: turf brown patch, preventive spray on creeping bent grass seedlings; conditions: 40 ppm (*)
Description: (the causal agent of turf brown patch) and incubated in a saturated atmosphere at 27° C. for 24 h, and then moved to a growth chamber at 27° C. for 5 days, after which disease ratings were made.

Plasmopara viticola = assay: Test D: grape downy mildew, spray after inoculation of grape seedlings; format: in vivo
Source text: Upon removal, disease ratings were made. […] A dash (-) indicates no test results.

[1] = tested on: Puccinia recondita f. sp. tritici; assay: Test K: wheat leaf rust, preventive spray on wheat seedlings; conditions: 40 ppm (*)
fusarium graminearium = assay: Test I: wheat head scab, preventive spray on wheat seedlings
Description: (the causal agent of wheat head scab) and incubated in a saturated atmosphere at 20° C. for 72 h, and then moved to a growth chamber at 22° C. for 5 days, after which disease ratings were made.

[2] = tested on: Erysiphe graminis f. sp. tritici; assay: Test L: wheat powdery mildew, preventive spray on wheat seedlings; conditions: 40 ppm (*)
Septoria tritici = assay: Test J: wheat leaf blotch, preventive spray on wheat seedlings; format: in vivo; conditions: 40 ppm (*)
Source text: A dash (-) indicates no test results.

[3] = tested on: Colletotrichum orbiculare; assay: Test B: cucumber Colletotrichum anthracnose, preventive spray on cucumber seedlings; conditions: 40 ppm (*)
Phytophthora infestans = assay: whole plant or invertebrate; format: in vivo
Septoria nodorum = assay: Test H: wheat glum blotch, preventive spray on wheat seedlings; conditions: 40 ppm (*)
Description: (the causal agent of wheat glum blotch) and incubated in a saturated atmosphere at 20° C. for 48 h, and then moved to a growth chamber at 22° C. for 5 days, after which disease ratings were made.

Botrytis cinerea = assay: Test E: tomato botrytis, preventive spray on tomato seedlings; conditions: 40 ppm (*)

Compound | Test A disease control rating (Pythium aphanidermatum; 200 ppm) [%] | Test G disease control rating (Rhizoctonia oryzae) | Test D disease control rating (Plasmopara viticola; 200 ppm) [%] | Test K disease control rating [1] | Test I disease control rating (fusarium graminearium; 200 ppm) [%] | Test L disease control rating [2] | Test J disease control rating (Septoria tritici) | Test B disease control rating [3] | Test F disease control rating (Phytophthora infestans; 200 ppm) [%] | Test H disease control rating (Septoria nodorum) | Test E disease control rating (Botrytis cinerea) | Test A disease control rating (Pythium aphanidermatum; 40 ppm (*)) | Test D disease control rating (Plasmopara viticola; 40 ppm (*)) | Test I disease control rating (fusarium graminearium; 40 ppm (*)) | Test F disease control rating (Phytophthora infestans; 40 ppm (*))
CC(C)Cn1c(-c2ccsc2)c(Cl)nc(-n2cccn2)c1=O [compound 154] | 0 | 0* % | 50 | 0* % | 0 | 0* % | 45* % | 0* % | 0 | 0* % | 99* % | – | – | – | –
CC(C)Cn1c(-c2ccc(Cl)o2)c(Cl)nc(-n2cncn2)c1=O [compound 156] | 0 | 0* % | 0 | 0* % | 0 | 0* % | 14* % | 0* % | 0 | 0* % | 0* % | – | – | – | –
CC(C)Cn1c(-c2ccc(Cl)s2)c(Cl)nc(-n2cncn2)c1=O [compound 157] | 0 | 0* % | 0 | 0* % | 49 | 0* % | 47* % | 0* % | 0 | 0* % | 0* % | – | – | – | –
CC(C)Cn1c(-c2ccoc2)c(Cl)nc(-n2cncn2)c1=O [compound 158] | 0 | 0* % | 0 | 0* % | 0 | 0* % | 15* % | 0* % | 0 | 0* % | 0* % | – | – | – | –
CC(C)Cn1c(-c2ccsc2)c(Cl)nc(-n2cncn2)c1=O [compound 159] | 0 | 0* % | 0 | 0* % | 0 | 0* % | 69* % | 0* % | 47 | 0* % | 0* % | – | – | – | –
N#Cc1nc(Cl)c(-c2c(F)cccc2F)n(-c2ccccc2)c1=O [compound 163] | – | 0* % | – | 0* % | – | 0* % | 3* % | 0* % | – | 0* % | 0* % | 0* % | 0* % | 0* % | 0* %
CCC(C)Cn1c(-c2ccc(F)cc2Cl)c(Cl)nc(-n2cncn2)c1=O (stereo not drawn) [compound 165] | – | 16* % | – | 100* % | – | 100* % | 100* % | 52* % | – | 100* % | 100* % | 0* % | 31* % | 0* % | 0* %
CCC(C)Cn1c(-c2ccc(F)cc2Cl)c(Cl)nc(-n2cc(Cl)cn2)c1=O (stereo not drawn) [compound 166] | – | 26* % | – | 86* % | – | 0* % | 100* % | 17* % | – | 0* % | 100* % | 0* % | 0* % | 0* % | 0* %
CCC(C)Cn1c(-c2ccc(F)cc2Cl)c(Cl)nc(-n2ccc(C(F)(F)F)n2)c1=O (stereo not drawn) [compound 167] | – | 0* % | – | 80* % | – | 0* % | 93* % | 0* % | – | 0* % | 0* % | 0* % | 0* % | 0* % | 0* %
